Data taken from US8871815B2, “Therapeutic compounds” (Signature Therapeutics, Inc., priority 2007, dated 2014).

Tests used:
[1] = target: T1, phosphodiesterase 2 (PDE2) (Homo sapiens, UniProt O00408); test: Cerep Diversity Profile: enzymes, PDE2; assay type: biochemical; conditions: tested at 10 μM; read-out: inhibition of control binding, PDE2
T1 construct: Cerep, Inc

[2] = system: pigs; test: Hemodynamic effects, arterial blood gas and serum chemistry in pigs, IV infusion; assay type: in vivo, pig; set-up: ABEc (acid base excess, corrected) / Glucose / Lactate: unit not given here; conditions: for ABEc (acid base excess, corrected) / Glucose / Lactate / Potassium / pC02 / pH / pO2: arterial blood, 0.384 mg/kg/min x 20 min IV
Experimental: Anesthesia was induced with isoflurane. Intravascular access was obtained from an ear vein. Each pig was intubated and mechanically ventilated.
ECG was monitored throughout the study. […] Body temperature was maintained at 37° C.
Arterial blood gas samples from pigs infused with Compound 1 were taken and analyzed for blood gas and serum chemistry values; mean values are reported in Table 4.

[3] = system: mongrel dogs; test: Anesthetic and hemodynamic effects in chronically instrumented mongrel dogs, total intravenous anesthesia; assay type: in vivo, dog
Experimental: Assessments included hemodynamic performance parameters such as blood pressure, heart rate, and cardiac output as well as clinical chemistry parameters and EEG analysis.
General anesthesia was induced in the dogs by IV administration of 7 mg/kg […], and the dogs were tracheally intubated and mechanically ventilated. General anesthesia was maintained using 2.2% end-tidal sevoflurane in oxygen. A thoracotomy was performed at the fifth left intercostal space, and heparin-filled catheters were placed in the proximal descending thoracic aorta (P50 pressure transducer Gould, Oxnard, Calif.), and in the right and left atria to provide IV access. An ultrasonic transit-time flow probe (T108, Transonic Systems, Ithaca, N.Y.) was placed around the ascending thoracic aorta. A […] Doppler flow probe (Model HDP-20-3.5, Triton Surgical Technologies, San Diego, Calif.) was placed around the left anterior descending coronary artery. Six MHz sonomicrometer crystals (Hartley, Houston, Tex.) were implanted in the subendocardium. A high fidelity micromanometer (P7, Konigsberg Instruments, Pasadena, Calif.) was inserted into the left ventricle. […]
The dogs were fasted overnight. […] EEG was recorded continuously during the experiment. Arterial blood gas and chemistry measures included pH, pO2, sO2, pCO2, tCO2, carbonate, potassium, sodium, and base excess, and were measured immediately following blood draws using a blood gas and chemistry analyzer (ABL-505, Radiometer, Copenhagen). […] Following stabilization, baseline measurements of EEG, hemodynamics, ECG, and blood gases were recorded. Blood samples were drawn for PK and clinical chemistry, and pressure volume loops were generated and data recorded.
Following induction, the dogs were tracheally intubated, and mechanically ventilated using 50% oxygen in nitrogen throughout the subsequent drug infusion and recovery periods. […] MAP was monitored continuously, and dosing was discontinued immediately if MAP decreased below 50 mmHg at any time or if the heart rate increased over 200 beats per minute. […]

[4] = Anesthetic effects in rats, bolus IV, Loss of Righting Reflex (LORR); assay type: in vivo, rat; conditions: male, Sprague-Dawley, rat, in vivo; bolus IV, rats; read-out: MTD (maximum tolerated dose)
Experimental: Also measured was minimum dose to achieve LORR and maximum tolerated dose (MTD).
The ranges of doses studied were 1.9, 2.3, 3.0, 7.0, 13.7, 14.0 and 15.2 mg/kg for Compound 1 and 3.5, 4.0, 7.0 and 14.0 mg/kg for […].

[5] = system: Beagle dogs; test: Hemodynamic effects (blood pressure) in beagle dogs, bolus IV; assay type: in vivo, dog; conditions: 4 min after administration
Experimental: The study was a crossover design. […] The MTD was defined as the dose that reduced mean arterial blood pressure (MAP) by 50% or to less than 50 millimeters of mercury (mmHg or mm Hg). All animals received supplemental oxygen and, if needed, ventilatory support after 4 min of apnea.
Hemodynamic data, such as mean arterial pressure (MAP), were recorded at baseline, 1, 2, 4, 8, 15, 20 and 30 min. Compound 1 was administered at 5, 10, 15 and 30 mg/kg to 3, 6, 6 and 3 dogs respectively. […] Data were analyzed with a 2-way ANOVA followed by t-test with Bonferroni correction for multiple comparisons.

[6] = system: rats; test: Separate rat study, bolus IV, 1% in cremaphor, sleep time; assay type: in vivo; conditions: 7 mg/kg bolus IV, rats

T1 sequence (O00408 whole entry): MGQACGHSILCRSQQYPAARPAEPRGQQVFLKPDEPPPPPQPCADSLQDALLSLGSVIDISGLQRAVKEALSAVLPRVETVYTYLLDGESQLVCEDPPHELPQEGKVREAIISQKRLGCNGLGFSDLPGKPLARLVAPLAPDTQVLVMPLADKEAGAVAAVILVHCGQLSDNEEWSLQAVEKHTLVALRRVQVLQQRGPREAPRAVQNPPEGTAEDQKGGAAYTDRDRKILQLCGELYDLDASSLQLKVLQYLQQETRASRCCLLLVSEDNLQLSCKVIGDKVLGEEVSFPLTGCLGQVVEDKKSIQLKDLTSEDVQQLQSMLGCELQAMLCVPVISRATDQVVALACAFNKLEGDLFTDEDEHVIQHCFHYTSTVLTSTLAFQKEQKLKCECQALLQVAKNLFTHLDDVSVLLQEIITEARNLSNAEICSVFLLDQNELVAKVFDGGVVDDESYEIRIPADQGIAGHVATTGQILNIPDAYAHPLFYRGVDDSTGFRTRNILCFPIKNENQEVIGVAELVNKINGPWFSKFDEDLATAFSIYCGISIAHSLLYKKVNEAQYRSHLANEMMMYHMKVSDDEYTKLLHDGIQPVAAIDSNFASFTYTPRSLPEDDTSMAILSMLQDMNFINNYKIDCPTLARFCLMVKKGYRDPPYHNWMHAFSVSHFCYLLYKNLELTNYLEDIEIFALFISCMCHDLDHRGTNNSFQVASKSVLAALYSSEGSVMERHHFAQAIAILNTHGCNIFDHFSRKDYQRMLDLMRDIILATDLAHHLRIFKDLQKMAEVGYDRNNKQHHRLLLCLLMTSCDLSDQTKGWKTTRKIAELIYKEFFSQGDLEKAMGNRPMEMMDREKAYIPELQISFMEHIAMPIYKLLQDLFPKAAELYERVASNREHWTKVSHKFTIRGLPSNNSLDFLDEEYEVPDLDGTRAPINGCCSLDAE

CC[C@@H](C)c1cccc([C@H](C)CC)c1O [Compound 1]
inhibition at 10 µM [1]: > 20% | metabolic alterations such as metabolic acidosis or increased lactate ([2]; IV infusion, pigs): did not produce any significant metabolic alterations | reduction of cardiac output compared to propofol ([2]; IV infusion, pigs): no significant difference | lowest HR measured ([2]; IV infusion, pigs (Compound 1 0.384, propofol 0.750 mg/kg/min)): 129±6 bpm | MAP (mean arterial pressure) ([2]; IV infusion, pigs (Compound 1 0.384, propofol 0.750 mg/kg/min), FIG. 1 in mm Hg): 106±3 | ABEc (acid base excess, corrected) ([2]; pigs, Min 0): 5.6 | Glucose ([2]; pigs, Min 0): 99.6 | Lactate ([2]; pigs, Min 0): 1.43 | Potassium ([2]; pigs, Min 0): 3.80 | pC02 ([2]; pigs, Min 0): 38.8 | pH ([2]; pigs, Min 0): 7.4861 | pO2 ([2]; pigs, Min 0): 390 | ABEc (acid base excess, corrected) ([2]; pigs, Min 4): 5.8 | Glucose ([2]; pigs, Min 4): 102.9 | Lactate ([2]; pigs, Min 4): 1.24 | Potassium ([2]; pigs, Min 4): 3.71 | pC02 ([2]; pigs, Min 4): 37.2 | pH ([2]; pigs, Min 4): 7.5027 | pO2 ([2]; pigs, Min 4): 410 | ABEc (acid base excess, corrected) ([2]; pigs, Min 20): 5.7 | Glucose ([2]; pigs, Min 20): 102.0 | Lactate ([2]; pigs, Min 20): 1.20 | Potassium ([2]; pigs, Min 20): 3.84 | pC02 ([2]; pigs, Min 20): 36.8 | pH ([2]; pigs, Min 20): 7.5066 | pO2 ([2]; pigs, Min 20): 419 | ABEc (acid base excess, corrected) ([2]; pigs, Min 80): 5.4 | Glucose ([2]; pigs, Min 80): 99.7 | Lactate ([2]; pigs, Min 80): 1.01 | Potassium ([2]; pigs, Min 80): 4.00 | pC02 ([2]; pigs, Min 80): 37.5 | pH ([2]; pigs, Min 80): 7.4943 | pO2 ([2]; pigs, Min 80): 402 | ABEc (acid base excess, corrected) ([2]; pigs, Min 140): 4.1 | Glucose ([2]; pigs, Min 140): 100.7 | Lactate ([2]; pigs, Min 140): 0.95 | Potassium ([2]; pigs, Min 140): 4.10 | pC02 ([2]; pigs, Min 140): 37.2 | pH ([2]; pigs, Min 140): 7.4803 | pO2 ([2]; pigs, Min 140): 399 | ABEc (acid base excess, corrected) ([2]; pigs, Min 200): 3.2 | Glucose ([2]; pigs, Min 200): 102.4 | Lactate ([2]; pigs, Min 200): 0.96 | Potassium ([2]; pigs, Min 200): 4.06 | pC02 ([2]; pigs, Min 200): 37.6 | pH ([2]; pigs, Min 200): 7.4641 | pO2 ([2]; pigs, Min 200): 356 | MAP and heart rate results compared to propofol [3]: no statistically significant differences | Cardiac output versus baseline ([3]; IV bolus then stepwise IV infusions 0.25-2.0 mg/kg/min): no statistically significant reduction | MTD [4]: 14 mg/kg | MAP % change from baseline ([5]; 10 mg/kg bolus IV): +11% | MAP % change from baseline ([5]; 15 mg/kg bolus IV): −25% | MAP % change from baseline ([5]; 30 mg/kg bolus IV): −41% | Sleep Time (duration of anesthesia) [6]: 23 min
